Values after ≈ are worked out from the molar mass of the structure shown. Where two headings read alike, the source gives them in different places.
How the values were obtained:
Format in all cases: cell-based
Enterococcus faecalis = assay: Baseline broth microdilution MIC (CLSI M07); settings: for MIC: Enterococcus faecalis
Description: (§1) MIC values were determined in triplicate by Clinical and Laboratory Standards Institute (CLSI) […] (2018) reference broth microdilution (BMD) using cation adjusted Mueller Hinton broth (CAMHB) to determine a consensus median baseline MIC value for each isolate and compound. As required by CLSI M100 (2021), quality control (QC) strains Escherichia coli ATCC 25922, Pseudomonas aeruginosa ATCC 27853, Staphylococcus aureus 29213, and Enterococcus faecalis ATCC 29212 were tested concomitantly with the clinical isolates. (QC data not shown).

[1] = tested on: Staphylococcus saprophyticus; assay: Baseline broth microdilution MIC (CLSI M07)
Description: as §1

[2] = tested on: Staphylococcus saprophyticus; assay: Time-kill kinetic assay; settings: 1× MIC, 5 S. saprophyticus isolates
Description: CAMHB was used for the follow-up time-kill kinetic studies. Each organism was tested in media containing either compound alone, or both, at ½×, ¼×, and 1× their respective MICs. Time-kill concentration tubes were sampled at time 0 hours (T0), T2, T4, T8, and T24. Samples were serially diluted ten-fold up to 8 times in tubes with […] of a 0.85% saline solution. A volume of 0.1 mL was then plated onto tryptic-soy agar with 5% sheep blood from the original sample and subsequent dilutions. Plates were incubated for 24 hours at 35° C. before quantifying the viable cell count for each tube at the specified times (T0-T24).
As described in the CLSI M26-A manual, bactericidal activity was defined as a 3-log10 decrease in CFU/mL below the starting inoculum that was maintained for 24 hours. […] The number of surviving organisms in the presence of the combination was required to be ≥2 log10 CFU/mL below the starting inocula and at least one of the drugs should not affect the growth curve of the tested organism.

Compound: O=c1ccc2ncc(=O)n3c2n1C[C@H]3CN1CCC(NCc2cc3c(cn2)OCCC3)CC1 [gepotidacin, (2R)-2-({4-[(3,4-dihydro-2H-pyrano[2,3-c]pyridin-6-ylmethyl)amino]-1-piperidinyl}methyl)-1,2-dihydro-3H,8H-2a,5,8a-triazaacenaphthylene-3,8-dione]
- MIC (Enterococcus faecalis; isolate E. faecalis 1097863, CAMHB, read-out: GEP MIC): 1 µg/mL (≈ 2.23 µM)
- MIC (Enterococcus faecalis; isolate E. faecalis 1103597, CAMHB, read-out: GEP MIC): 0.5 µg/mL (≈ 1.11 µM)
- MIC (Enterococcus faecalis; isolate E. faecalis 1103850, CAMHB, read-out: GEP MIC): 0.5 µg/mL (≈ 1.11 µM)
- MIC (Enterococcus faecalis; isolate E. faecalis 1111210, CAMHB, read-out: GEP MIC): 1 µg/mL (≈ 2.23 µM)
- MIC (Enterococcus faecalis; isolate E. faecalis 1124756, CAMHB, read-out: GEP MIC): 0.5 µg/mL (≈ 1.11 µM)
- MIC ([1]; isolate S. saprophyticus 1106006, CAMHB, read-out: GEP MIC): 0.25 µg/mL (≈ 0.557 µM)
- MIC ([1]; isolate S. saprophyticus 1113726, CAMHB, read-out: GEP MIC): 0.12 µg/mL (≈ 0.268 µM)
- MIC ([1]; isolate S. saprophyticus 1115244, CAMHB, read-out: GEP MIC): 0.12 µg/mL (≈ 0.268 µM)
- MIC ([1]; isolate S. saprophyticus 1125669, CAMHB, read-out: GEP MIC): 0.25 µg/mL (≈ 0.557 µM)
- MIC ([1]; isolate S. saprophyticus 1129086, CAMHB, read-out: GEP MIC): 0.25 µg/mL (≈ 0.557 µM)
- Bactericidal activity (3-log10 decrease in CFU/mL below the starting inoculum maintained for 24 hours) [2]: not achieved

Compound: CN[C@H](CC(C)C)C(=O)N[C@H]1C(=O)N[C@@H](CC(N)=O)C(=O)N[C@H]2C(=O)N[C@H]3C(=O)N[C@H](C(=O)N[C@H](C(=O)O)c4cc(O)cc(O)c4-c4cc3ccc4O)[C@H](O)c3ccc(c(Cl)c3)Oc3cc2cc(c3O[C@@H]2O[C@H](CO)[C@@H](O)[C@H](O)[C@H]2O[C@H]2C[C@](C)(N)[C@H](O)[C@H](C)O2)Oc2ccc(cc2Cl)[C@H]1O [vancomycin]
- MIC (Enterococcus faecalis; read-out: VANC MIC): 1 µg/mL (≈ 0.69 µM)
- VANC MIC (Enterococcus faecalis; isolate E. faecalis 1103597, CAMHB): 1 µg/mL
- VANC MIC (Enterococcus faecalis; isolate E. faecalis 1103850, CAMHB): 1 µg/mL
- VANC MIC (Enterococcus faecalis; isolate E. faecalis 1111210, CAMHB): 1 µg/mL
- VANC MIC (Enterococcus faecalis; isolate E. faecalis 1124756, CAMHB): 1 µg/mL
- MIC ([1]; read-out: VANC MIC, isolate S. saprophyticus 1106006, CAMHB): 0.5 µg/mL (≈ 0.345 µM)
- MIC ([1]; read-out: VANC MIC, isolate S. saprophyticus 1113726, CAMHB): 1 µg/mL (≈ 0.69 µM)
- MIC ([1]; read-out: VANC MIC, isolate S. saprophyticus 1115244, CAMHB): 1 µg/mL (≈ 0.69 µM)
- MIC ([1]; read-out: VANC MIC, isolate S. saprophyticus 1125669, CAMHB): 1 µg/mL (≈ 0.69 µM)
- MIC ([1]; read-out: VANC MIC, isolate S. saprophyticus 1129086, CAMHB): 0.5 µg/mL (≈ 0.345 µM)
- Bactericidal activity (3-log10 decrease in CFU/mL below the starting inoculum maintained for 24 hours) [2]: not achieved

— patent publication US20250099535A1, “GEPOTIDACIN AND VANCOMYCIN FOR USE IN THE TREATMENT OF AN INFECTION CAUSED BY STAPHYLOCOCCUS SAPROPHYTICUS” (GlaxoSmithKline Intellectual Property Development Limited, priority 2022, published 2025)
